Experiments:
Assay type in all cases: cell-based
[1] = system: HCT116 cells; experiment: XTT cell viability assay, HCT116 cells; conditions: HCT116 (mutated RAS), 48 hours, Figure 14
[2] = system: A549 cells; experiment: XTT cell viability assay, A549 cells; conditions: A549 (mutated RAS), 48 hours, Figure 15
[3] = system: HT-29 cells; experiment: XTT cell viability assay, HT-29 cells; conditions: HT-29 (B-RAF V600E), different doses of Dabrafenib, with or without LDN192960 10 µM, 48 hours, Figure 16
[4] = system: pERK1/2-T202/T204; experiment: Western-blot of ERK1/2 activation loop phosphorylation in HEK-293T cells; conditions: Dabrafenib 10 µM 24 hours, EGF 50-100 ng/ml 5 minutes, Figure 13A
[5] = system: DYRK2; experiment: Western-blot of DYRK2 protein levels in HEK-293T cells; conditions: for DYRK2 levels: HEK-293T transfected with Flag-DYRK2, inhibitor 10 µM for 24 hours, Figure 13B

CC(C)(C)c1nc(-c2cccc(NS(=O)(=O)c3c(F)cccc3F)c2F)c(-c2ccnc(N)n2)s1 [Dabrafenib]
cell viability (tumour survival) ([1]; low doses of Dabrafenib): increase in tumour survival compared to the control | cell viability ([1]; very high doses of Dabrafenib): slightly reducing cell viability | cell viability (tumour survival) ([2]; low doses of Dabrafenib): increase in tumour survival compared to the control | cell viability ([2]; very high doses of Dabrafenib): slightly reducing cell viability | cell viability [3]: dose-dependent decrease in viability | pathway activation [4]: reduction in pathway activation | DYRK2 stabilisation ([5]; HEK-293T transfected with Flag-DYRK2, Dabrafenib 10 µM 24 hours, Figure 13A): DYRK2 stabilisation was observed | DYRK2 levels [5]: increasing DYRK2 levels

N#CC(=C(/N)Sc1ccccc1N)/C(C#N)=C(\N)Sc1ccccc1N [U0126]
DYRK2 levels [5]: increasing DYRK2 levels

From EP4755378A1, “DYRK2 INHIBITORS FOR TREATING TUMOURS WITH THE HYPERACTIVE MAPK/ERK PATHWAY” (Universidad de Córdoba, priority 2023, dated 2025)
